pIC50: −log10 of the molar value. Like-named read-outs stand apart in the source and are kept apart here.
Key:
MV4-11 cells = test: Growth inhibition, MTS assay, MV4-11; format: cell-based, Human; settings: MTS cell viability, read-out: MV4-11 ED50; for IC50: 72 hours; for pIC50: Homo sapiens, MV4-11, 72 h
Excerpt: (§1) The following cell lines, were obtained and used in tests as outlined below: • Human myelomonocytic, biphenotypic leukemia MV4-11 cells (harboring a Flt3-ITD mutation); • Human Acute Myeloid Leukemia MOLM16 cells; • Human Acute Myeloid Leukemia MOLM13 cells (harboring a Flt3-ITD mutation); • Human Myeloid Leukemia KG-1 cells; • Human erythroleukemia HEL92 cells; • Human mantle cell lymphoma Jeko-1 cells; • Human hepatocellular carcinoma HepG2 cells; and • Human colon adenocarcinoma SW-480 cells.
(§2) The assays were carried out according to the following protocol, which is described as an example for the MV4-11 cells:
(§3) Ten thousand MV4-11 cells were inoculated into each well of a 96-well microplate (manufactured by Corning Corp.) using Iscove's MDM medium (culture medium) containing 10% fetal calf serum (FCS). The same day, a dimethyl sulfoxide (DMSO) solution of each test compound prepared in a concentration of 10 mmol/L was further diluted with DMSO to the desired concentrations (0.1, 0.5, 1, 2.5, 5 and 10 micromol/L), and the diluted solution was added to each well. The individual wells were further cultured in 5% carbon dioxide at 37° C. for 72 hours. […] Briefly, 10 μl MTS (3-(4,5-Dimethyl-2-thiazolyl)-5-(carboxymethoxyphenyl)-2-(4-sulfophenyl)-2H-tetrazolium was added to each well, and culturing was performed in 5% carbon dioxide at 37° C. for 2 hours. After this incubation and using a microplate spectrophotometer (Synergy 2 multi-mode microplate reader (BioTek)), the absorbance of each well was measured at 490 nm. The value for cells not incubated with a test compound was designated as 100%. By comparing these values with the absorbance difference obtained at the well in which each test compound was added, the cell viability (% viability) after treatment with the test compound was calculated.

HepG2 cells = test: Growth inhibition, MTS assay, HepG2; format: cell-based, Human; settings: MTS cell viability, read-out: HepG2 ED50; for IC50: 72 hours; for pIC50: Homo sapiens, HepG2, 72 h
Excerpt: as §1, §2, §3

Pim-1 = Pim-1 (Homo sapiens (Human), UniProt P11309); test: ADP-Glo Kinase Assay, Pim-1; format: biochemical; settings: 1 μM compound; for inhibition at 1 µM: read-out: Pim-1 % INH (1 μM)
Sequence of Pim-1 (P11309 whole entry): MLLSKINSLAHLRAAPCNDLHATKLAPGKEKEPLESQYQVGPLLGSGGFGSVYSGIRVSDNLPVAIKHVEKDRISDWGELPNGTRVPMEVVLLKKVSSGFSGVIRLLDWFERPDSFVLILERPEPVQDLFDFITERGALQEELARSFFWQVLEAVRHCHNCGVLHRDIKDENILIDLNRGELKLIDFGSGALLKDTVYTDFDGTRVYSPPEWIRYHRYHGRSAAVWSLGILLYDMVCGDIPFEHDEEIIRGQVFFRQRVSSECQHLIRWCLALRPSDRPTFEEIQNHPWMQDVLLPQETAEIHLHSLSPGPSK
Procedure: (§4) Compounds of the present invention were tested for their inhibitory activity against Pim-1, Pim-2, Pim-3, Flt3 wt, Flt3 ITD, CDK2/E and DYRK1. The testing of the compounds was carried out using the ADP-Glo™ Kinase Assay from Promega Corporation (Madison, Wis., USA).
(§5) The ADP-Glo™ Kinase Assay is a luminescent ADP detection assay to measure kinase activity by quantifying the amount of ADP produced during a kinase reaction. The kinase assay is performed in kinase assay buffer (5 mM MOPS, pH 7.5, 5 mM MgCl2, 0.4 mM EDTA, 1.5 mM DTT). Test samples initially dissolved in DMSO at 10 mM were diluted with the assay buffer to 1000 nM. A 30 μL volume/well of a mixture of substrates containing ATP (final ATP concentration in each kinase assay was equal to its apparent ATP Km).
(§6) The assay was performed in two steps: first, after the kinase reaction, an equal volume of ADP-Glo™ Reagent was added to terminate the kinase reaction and deplete the remaining ATP. Second, the Kinase Detection Reagent was added to simultaneously convert ADP to ATP and allowed the newly synthesized ATP to be measured using a luciferase/luciferin reaction. The luminescent signal generated was proportional to the ADP concentration produced and was correlated with kinase activity. A microplate spectrophotometer (Synergy 2 multi-mode microplate reader [BioTek]) was used for detecting the luminescence. The data was normalized and the percent of inhibition was obtained according to the following equation: […]

DYRK1 = DYRK1 (Homo sapiens (Human), UniProt Q13627); test: ADP-Glo Kinase Assay, DYRK1; format: biochemical; settings: 1 μM compound; for inhibition at 1 µM: read-out: DYRK1A % INH (1 μM)
Procedure: as §4, §5, §6

HEL92 cells = test: Growth inhibition, MTS assay, HEL92; format: cell-based, Human; settings: MTS cell viability, read-out: HEL92 ED50; for IC50: 72 hours; for pIC50: Homo sapiens, 72 h
Excerpt: as §1, §2, §3

FLT3wt = FLT3wt (Homo sapiens (Human), UniProt P36888); test: ADP-Glo Kinase Assay, Flt3 wt; format: biochemical; settings: 1 μM compound; for inhibition at 1 µM: read-out: Flt3wt % INH (1 μM)
Sequence of FLT3wt (P36888 27-993): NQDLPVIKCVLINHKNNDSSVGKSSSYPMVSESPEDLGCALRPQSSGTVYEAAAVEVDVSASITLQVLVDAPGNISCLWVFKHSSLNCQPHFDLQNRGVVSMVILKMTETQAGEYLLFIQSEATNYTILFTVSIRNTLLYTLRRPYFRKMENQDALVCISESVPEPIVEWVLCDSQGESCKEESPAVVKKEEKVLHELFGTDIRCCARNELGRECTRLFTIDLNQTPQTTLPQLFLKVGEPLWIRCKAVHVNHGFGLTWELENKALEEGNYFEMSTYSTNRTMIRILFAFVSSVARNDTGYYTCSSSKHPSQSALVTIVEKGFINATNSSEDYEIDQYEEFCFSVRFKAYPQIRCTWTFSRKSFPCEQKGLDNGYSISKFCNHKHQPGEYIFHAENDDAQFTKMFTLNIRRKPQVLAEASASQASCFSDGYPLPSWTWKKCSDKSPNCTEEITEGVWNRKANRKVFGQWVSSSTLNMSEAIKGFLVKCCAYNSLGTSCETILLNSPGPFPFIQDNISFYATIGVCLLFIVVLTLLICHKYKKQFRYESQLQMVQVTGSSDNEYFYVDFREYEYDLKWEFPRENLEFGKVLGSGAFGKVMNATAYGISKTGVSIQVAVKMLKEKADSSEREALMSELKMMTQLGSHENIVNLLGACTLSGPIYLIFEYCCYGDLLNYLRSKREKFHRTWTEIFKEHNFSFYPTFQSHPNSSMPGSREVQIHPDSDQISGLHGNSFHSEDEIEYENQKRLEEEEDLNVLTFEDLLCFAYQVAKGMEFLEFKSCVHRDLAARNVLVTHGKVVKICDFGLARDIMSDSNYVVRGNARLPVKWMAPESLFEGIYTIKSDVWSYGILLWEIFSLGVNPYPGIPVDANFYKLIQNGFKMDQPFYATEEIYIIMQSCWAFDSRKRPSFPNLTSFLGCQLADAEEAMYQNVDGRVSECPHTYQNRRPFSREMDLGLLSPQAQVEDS
Procedure: as §4, §5, §6

CDK2/E = CDK2/E (Homo sapiens (Human), UniProt P24941); test: ADP-Glo Kinase Assay, CDK2/E; format: biochemical; settings: 1 μM compound
Procedure: as §4, §5, §6

Molecule	IC50 (MV4-11 cells) [nM]	IC50 (HepG2 cells) [nM]	Pim-1 % INH (1 μM) (Pim-1) [%]	DYRK1A % INH (1 μM) (DYRK1) [%]	IC50 (HEL92 cells) [nM]	inhibition at 1 µM (Pim-1) [%]	other results
5-bromo-6-methyl-4-nitro-2-(piperazin-1-yl)-1-(propan-2-yl)-1H-1,3-benzodiazole [Example 4B]	1200	1800	>95	51	4100		
CC(C)n1c(N[C@@H]2CCNC2)nc2c([N+](=O)[O-])c(Br)c(Br)cc21 [Example 1BF]	2000	2300			7600		
CC(C)n1c(N[C@@H]2CCCNC2)nc2c([N+](=O)[O-])c(Br)c(Br)cc21 [Example 1CA]	2600	1800	77	64	9700		
O=[N+]([O-])c1c(Br)c(Br)cc2c1nc(N[C@@H]1CCNC1)n2CC1CC1 [Example 1CJ]	5500	5300			5500		
Cl.N[C@H]1CCN(c2nc3c([N+](=O)[O-])c(Br)c(Br)cc3n2CC2CC2)C1 [Example 1CK]	2000	5300	>95	23	6900		Flt3wt % INH (1 μM) (FLT3wt): 30%; CDK2/E % INH (1 μM) (CDK2/E): 24%
CC(C)n1c(N2CCNCC2)nc2c([N+](=O)[O-])c(Br)c(F)cc21 [Example 1CL]	1000	1500	82	45	2400		
CCCn1c(N2CC[C@@H](N)C2)nc2c([N+](=O)[O-])c(Br)c(Br)cc21 [Example 1CM]	800	2600	>95	95	5200		Flt3wt % INH (1 μM) (FLT3wt): 26%
CCn1c(N2CCNCC2)nc2c([N+](=O)[O-])c(Cl)c(Cl)cc21 [Example 1CN]	3300	4500	76	27	9400		
CC(C)n1c(N2CCC(N)CC2)nc2c([N+](=O)[O-])c(Br)c(Br)cc21 [Example 1CP]	600	1200	>95	44	5800		Flt3wt % INH (1 μM) (FLT3wt): 32%; CDK2/E % INH (1 μM) (CDK2/E): 39%
CC(C)n1c(NC2CCC(N)CC2)nc2c([N+](=O)[O-])c(Br)c(Br)cc21 (stereo not drawn) [Example 1CQ]	1700		>95	28	6000		pIC50 (HepG2 cells): 5.70; Flt3wt % INH (1 μM) (FLT3wt): 17%; CDK2/E % INH (1 μM) (CDK2/E): 50%
CC(C)n1c(NC2CNC2)nc2c([N+](=O)[O-])c(Br)c(Br)cc21 [Example 1CR]	1100	1900	>95	70	8700		Flt3wt % INH (1 μM) (FLT3wt): 44%
CC(C)n1c(N2CC(N)C2)nc2c([N+](=O)[O-])c(Br)c(Br)cc21 [Example 1CX]						> 95	pIC50 (MV4-11 cells): 5.92; pIC50 (HepG2 cells): 5.51; inhibition at 1 µM (FLT3wt): 44%; inhibition at 1 µM (DYRK1): 73%; pIC50 (HEL92 cells): 5.39
CC(C)n1c(N2CC[C@@H](N)C2)nc2c([N+](=O)[O-])c(Br)c(F)cc21 [Example 1CY]	2100	2800	>95		8900		Flt3wt % INH (1 μM) (FLT3wt): <5%
CCn1c(N2CCNCC2C)nc2c([N+](=O)[O-])c(Cl)c(Cl)cc21 (stereo not drawn) [Example 1DA]	500	900	91	36	1100		
N[C@@H]1CCN(c2nc3c([N+](=O)[O-])c(Br)c(Br)cc3n2CCCO)C1 [Example 1DF]	2000	3700	>95	55			Flt3wt % INH (1 μM) (FLT3wt): 18%
O=[N+]([O-])c1c(Br)c(Br)cc2c1nc(N1CCNCC1)n2C1CCC1 [Example 1DG]	200	400	>95	92	1800		
O=[N+]([O-])c1c(Br)c(Br)cc2c1nc(N1CCNCC1)n2CCO [Example 1DJ]						95	pIC50 (MV4-11 cells): 6.22; pIC50 (HepG2 cells): 5.68; inhibition at 1 µM (DYRK1): > 95%; pIC50 (HEL92 cells): 5.17
CC(C)n1c(NC2CCNCC2)nc2c([N+](=O)[O-])c(Br)c(Br)cc21 [Example 1DK]	5500	5700	>95	25	5800		
CC(C)n1c(N2CCNCC2CO)nc2c([N+](=O)[O-])c(Br)c(Br)cc21 (stereo not drawn) [Example 1DN]	500	900	>95	38	4500		Flt3wt % INH (1 μM) (FLT3wt): 55%
CCn1c(NC2CCC(N)CC2)nc2c([N+](=O)[O-])c(Br)c(Br)cc21 (stereo not drawn) [Example 1DO]	4300	2200	93				
CCn1c(N2CCNC[C@@H]2C)nc2c(C#N)c(Br)c(Br)cc21 [Example 1DP]						> 95	pIC50 (MV4-11 cells): 7.00; pIC50 (HepG2 cells): 6.70; inhibition at 1 µM (FLT3wt): 57%; inhibition at 1 µM (DYRK1): > 95%; pIC50 (HEL92 cells): 6.30
CCn1c(N2CCC[C@H](NC)C2)nc2c([N+](=O)[O-])c(Br)c(Br)cc21 [Example 1DZ]						> 95	
CC[C@H]1CNCCN1c1nc2c([N+](=O)[O-])c(Br)c(Br)cc2n1C(C)C [Example 1EA]						> 95	
COC1CN(c2nc3c([N+](=O)[O-])c(Br)c(Br)cc3n2C(C)C)CC1N (stereo not drawn) [Example 1EB]						> 95	
Cc1c(Br)cc2c(nc(N3CCNCC3)n2C(C)C)c1[N+](=O)[O-] [Example 4A, 5-methyl-6-bromo-4-nitro-2-(piperazin-1-yl)-1-(propan-2-yl)-1H-1,3-benzodiazole]						81	pIC50 (MV4-11 cells): 6.00; pIC50 (HEL92 cells): 5.06
N#Cc1c(Br)c(Br)cc2c1nc(N1CC[C@@H](N)C1)n2[C@H]1CCNC1 [Example 8G, 2-[(3R)-3-aminopyrrolidin-1-yl]-5,6-dibromo-1-[(3S)-pyrrolidin-3-yl]-1H-1,3-benzodiazole-4-carbonitrile]						> 95	
CC(C)n1c(N2CCNC(CO)C2)nc2c([N+](=O)[O-])c(Br)c(Br)cc21 (stereo not drawn) [Example 22AD, {4-[5,6-dibromo-4-nitro-1-(propan-2-yl)-1H-1,3-benzodiazol-2-yl]piperazin-2-yl}methanol]						> 95	pIC50 (MV4-11 cells): 6.15; pIC50 (HepG2 cells): 5.92; inhibition at 1 µM (DYRK1): 31%; pIC50 (HEL92 cells): 5.21
O=[N+]([O-])c1c(Br)c(Br)cc2c1nc(C1CCNCC1)n2CC1CCNCC1 [Example 27A, 5,6-dibromo-4-nitro-2-(piperidin-4-yl)-1-(piperidin-4-ylmethyl)-1H-1,3-benzodiazole]						56	

Source: patent US10174013B2, “Benzimidazole derivatives as kinase inhibitors” (SELVITA S.A., priority 2012, dated 2019)
